# In US8822471B2, “Compounds, pharmaceutical compositions and uses thereof” (Boehringer Ingelheim International GmbH, priority 2011, dated 2014):
# Molecular target: T1, human GPR119 (Homo sapiens, UniProt Q8TDV5)
# T1 construct: expression vector for human GPR119 cDNA (Acc. No. NP_848566); expressed in transfected cells
# T1 sequence (Q8TDV5 1-335): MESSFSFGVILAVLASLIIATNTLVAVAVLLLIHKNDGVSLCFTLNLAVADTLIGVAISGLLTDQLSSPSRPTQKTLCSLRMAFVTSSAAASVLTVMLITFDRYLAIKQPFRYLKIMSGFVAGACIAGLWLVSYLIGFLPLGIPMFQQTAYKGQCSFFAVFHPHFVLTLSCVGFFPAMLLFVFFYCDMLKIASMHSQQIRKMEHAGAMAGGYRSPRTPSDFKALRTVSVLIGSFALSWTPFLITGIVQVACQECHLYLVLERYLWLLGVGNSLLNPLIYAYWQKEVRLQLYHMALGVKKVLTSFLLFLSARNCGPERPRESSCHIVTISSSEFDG
# Experiment: AlphaScreen cAMP assay in MIN6 cells stably transfected with human GPR119
# Format: cell-based
# Settings: Min-6/hGPR119 cells, AlphaScreen cAMP Assay Kit, 45 minutes incubation at room temperature
# How it was run: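 MIN6 cells stably expressing human GPR119, seeded 24 h, then stimulated 45 min at room temperature with compound in pH 7.4 Hepes-buffered salt solution with 0.5 mM IBMX, 0.1% BSA, 1% DMSO. Intracellular cAMP measured by AlphaScreen.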
row,Compound,EC50
1,"CCOc1cnc(N2CCC(N(C(=O)c3ccc(-c4cnco4)cc3)C3CC3)CC2)nc1 [Example 76, N-Cyclopropyl-N-[1-(5-ethoxy-pyrimidin-2-yl)-piperidin-4-yl]-4-oxazol-5-yl-benzamide]",0.165 µM
2,"CC(C)Oc1cnc(N2CCC(N(C(=O)c3ccc(-c4cnco4)cc3)C3CC3)CC2)nc1 [Example 77, N-Cyclopropyl-N-[1-(5-isopropoxy-pyrimidin-2-yl)-piperidin-4-yl]-4-oxazol-5-yl-benzamide]",0.115 µM
3,"O=C(c1ccc(-c2cnco2)cc1)N(C1CC1)C1CCN(c2cnc(C3CC3)cn2)CC1 [Example 78, N-Cyclopropyl-N-[1-(5-cyclopropyl-pyrazin-2-yl)-piperidin-4-yl]-4-oxazol-5-yl-benzamide]",0.043 µM
4,"O=C(c1ccc(-c2cnco2)cc1)N(C1CC1)C1CCN(c2nnc(-c3ccccc3)s2)CC1 [Example 79, N-Cyclopropyl-4-oxazol-5-yl-N-[1-(5-phenyl-[1,3,4]thiadiazol-2-yl)-piperidin-4-yl]-benzamide]",0.075 µM
5,"O=C(c1ccc(-c2cnco2)cc1)N(C1CC1)C1CCN(c2ccc(Cl)cn2)CC1 [Example 80, N-(5′-Chloro-3,4,5,6-tetrahydro-2H-[1,2′]bipyridinyl-4-yl)-N-cyclopropyl-4-oxazol-5-yl-benzamide]",0.179 µM
6,"COC(=O)c1cnc(N2CCC(N(C(=O)c3ccc(-c4cnco4)cc3)C3CC3)CC2)cn1 [Example 81, 5-{4-[Cyclopropyl-(4-oxazol-5-yl-benzoyl)-amino]-piperidin-1-yl}-pyrazine-2-carboxylic acid methyl ester]",0.498 µM
7,"Cc1cnc(C)c(N2CCC(N(C(=O)c3ccc(-c4cnco4)cc3)C3CC3)CC2)n1 [Example 82, N-Cyclopropyl-N-[1-(3,6-dimethyl-pyrazin-2-yl)-piperidin-4-yl]-4-oxazol-5-yl-benzamide]",0.116 µM
8,"O=C(c1ccc(-c2cnco2)cc1)N(C1CC1)C1CCN(c2cnc(I)cn2)CC1 [Example 83, N-Cyclopropyl-N-[1-(5-iodo-pyrazin-2-yl)-piperidin-4-yl]-4-oxazol-5-yl-benzamide]",0.01 µM
9,"COC(=O)c1cnc(N2CCC(N(C(=O)c3ccc(-c4cnco4)cc3)C3CC3)CC2)nc1 [Example 84, 2-{4-[Cyclopropyl-(4-oxazol-5-yl-benzoyl)-amino]-piperidin-1-yl}-pyrimidine-5-carboxylic acid methyl ester]",0.116 µM
10,"O=C(c1ccc(-c2cnco2)cc1)N(C1CC1)C1CCN(c2cnccn2)CC1 [Example 85, N-Cyclopropyl-4-oxazol-5-yl-N-(1-pyrazin-2-yl-piperidin-4-yl)-benzamide]",0.449 µM
11,"N#Cc1cnc(N2CCC(N(C(=O)c3ccc(-c4cnco4)cc3)C3CC3)CC2)cn1 [Example 86, N-[1-(5-Cyano-pyrazin-2-yl)-piperidin-4-yl]-N-cyclopropyl-4-oxazol-5-yl-benzamide]",0.139 µM
12,"O=C(c1ccc(-c2cnco2)cc1)N(C1CC1)C1CCN(c2nnc(C(F)(F)F)s2)CC1 [Example 87, N-Cyclopropyl-4-oxazol-5-yl-N-[1-(5-trifluoromethyl-[1,3,4]thiadiazol-2-yl)-piperidin-4-yl]-benzamide]",0.025 µM
13,"O=C(c1ccc(-c2cnco2)cc1)N(C1CC1)C1CCN(c2ncc(C3CC3)cn2)CC1 [Example 88, N-Cyclopropyl-N-[1-(5-cyclopropyl-pyrimidin-2-yl)-piperidin-4-yl]-4-oxazol-5-yl-benzamide]",0.071 µM
14,"Cc1cnc(N2CCC(N(C(=O)c3ccc(-c4cnco4)cc3)C3CC3)CC2)nc1 [Example 89, N-Cyclopropyl-N-[1-(5-methyl-pyrimidin-2-yl)-piperidin-4-yl]-4-oxazol-5-yl-benzamide]",0.034 µM

# Molecular target: T2, mutant form of the human GPR119 receptor (Homo sapiens, UniProt Q8TDV5, S329A/T327A)
# T2 construct: T327 & S329 changed to alanines; expressed in transfected cells
# T2 sequence (Q8TDV5 2-335 T327A/S329A): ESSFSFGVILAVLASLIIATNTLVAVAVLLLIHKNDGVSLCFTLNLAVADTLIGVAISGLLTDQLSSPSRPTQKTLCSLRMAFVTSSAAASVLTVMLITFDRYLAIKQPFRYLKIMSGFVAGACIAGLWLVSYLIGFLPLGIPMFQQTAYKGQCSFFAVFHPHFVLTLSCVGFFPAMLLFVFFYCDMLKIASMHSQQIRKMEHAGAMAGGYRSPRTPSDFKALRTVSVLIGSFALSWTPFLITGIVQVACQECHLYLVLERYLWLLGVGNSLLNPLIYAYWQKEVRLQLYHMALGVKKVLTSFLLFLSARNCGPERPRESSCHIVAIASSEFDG
# Experiment: LANCE cAMP-384 assay in HEK293 cells stably expressing a mutant form of the human GPR119 receptor
# Format: cell-based
# Settings: HEK293 cells stably expressing mutant human GPR119, LANCE cAMP-384 Kit, 20 min at 37° C.
# Description: Quantitative detection of cAMP accumulation from cells expressing human GPR119 receptor is achieved using Perkin Elmer's LANCE cAMP-384 Kit (Cat#AD0264) according to the manufacturer's protocol. Briefly, HEK293 cells stably expressing a mutant form of the human GPR119 receptor as assay tool (Methionine 1 replaced with the amino acid sequence […], and T327 & S329 changed to alanines; SEQ ID No. 1) are grown to 50-70% confluency in cell culture media (DMEM, 10% heat inactivated Fetal Bovine Serum, 50 I.U./mL penicillin, 50 μg/mL streptomycin, 10 mM HEPES, 20 μg/mL G418 Sulfate). On the day of the assay, GPR119 stable HEK293 cells are lifted from the tissue culture plate and 1000 cells/well are incubated along with various concentrations of test compounds for 20 min at 37° C. Detection Buffer (50 mM HEPES, 10 mM calcium chloride, 0.35% Triton X-100, 1 mg/mL BSA) containing cAMP-specific antibody is then added to all wells and allowed to equilibrate in the dark for 10 minutes at room temperature. Upon equilibration, Detection Buffer containing europium-labeled cAMP tracer complex is added to all wells and allowed to react for 1 hour at room temperature. After 1 hour, bound europium-labeled cAMP tracer is measured using a Perkin Elmer Envision plate reader. The quantity of cAMP generated in each well is derived from a standard curve. EC50 is determined using nonlinear regression analysis of the cAMP values over a range of agonist concentration (12 points spanning the range from 30 μM to 100 pM).
row,Compound,EC50
1,"Cc1nnnn1-c1ccc(C(=O)N(C2CC2)[C@@H]2CCN(c3ccc(C(F)(F)F)cn3)C[C@@H]2F)cc1 (single isomer, unassigned) [Example 120]",0.745 µM
2,"O=C(c1ccc(-n2cnnn2)c(F)c1)N(C1CC1)[C@@H]1CCN(c2ccc(C(F)(F)F)cn2)C[C@@H]1F (single isomer, unassigned) [Example 121]",0.134 µM
3,"Cc1nccn1-c1ccc(C(=O)N(C2CC2)C2CCN(c3ncc(C(F)(F)F)cc3F)CC2)cc1 [Example 90, N-Cyclopropyl-N-(3′-fluoro-5′-trifluoromethyl-3,4,5,6-tetrahydro-2H-[1,2′]bipyridinyl-4-yl)-4-(2-methyl-imidazol-1-yl)-benzamide]",0.149 µM
4,"O=C(c1ccc(-n2cncn2)cc1)N(C1CC1)C1CCN(c2ncc(C(F)(F)F)cc2F)CC1 [Example 91, N-Cyclopropyl-N-(3′-fluoro-5′-trifluoromethyl-3,4,5,6-tetrahydro-2H-[1,2′]bipyridinyl-4-yl)-4-[1,2,4]triazol-1-yl-benzamide]",0.048 µM
5,"Cc1ncnn1-c1ccc(C(=O)N(C2CC2)C2CCN(c3ncc(C(F)(F)F)cc3F)CC2)cc1 [Example 92, N-Cyclopropyl-N-(3′-fluoro-5′-trifluoromethyl-3,4,5,6-tetrahydro-2H-[1,2′]bipyridinyl-4-yl)-4-(5-methyl-[1,2,4]triazol-1-yl)-benzamide]",0.265 µM
6,"Cc1nccn1-c1ccc(C(=O)N(C2CC2)C2CCN(c3ncc(C(F)(F)F)cc3F)CC2)cc1F [Example 93, N-Cyclopropyl-3-fluoro-N-(3′-fluoro-5′-trifluoromethyl-3,4,5,6-tetrahydro-2H-[1,2′]bipyridinyl-4-yl)-4-(2-methyl-imidazol-1-yl)-benzamide]",0.168 µM
7,"O=C(c1ccc(-n2cncn2)c(F)c1)N(C1CC1)C1CCN(c2ncc(C(F)(F)F)cc2F)CC1 [Example 94, N-Cyclopropyl-3-fluoro-N-(3′-fluoro-5′-trifluoromethyl-3,4,5,6-tetrahydro-2H-[1,2′]bipyridinyl-4-yl)-4-[1,2,4]triazol-1-yl-benzamide]",0.01 µM
8,"Cc1ncnn1-c1ccc(C(=O)N(C2CC2)C2CCN(c3ncc(C(F)(F)F)cc3F)CC2)cc1F [Example 95, N-Cyclopropyl-3-fluoro-N-(3′-fluoro-5′-trifluoromethyl-3,4,5,6-tetrahydro-2H-[1,2′]bipyridinyl-4-yl)-4-(5-methyl-[1,2,4]triazol-1-yl)-benzamide]",0.595 µM
9,"Cc1nccn1-c1ccc(C(=O)N(C2CC2)C2CCN(c3nc(C(C)C)no3)CC2)cc1 [Example 96, N-Cyclopropyl-N-[1-(3-isopropyl-[1,2,4]oxadiazol-5-yl)-piperidin-4-yl]-4-(2-methyl-imidazol-1-yl)-benzamide]",1.63 µM
10,"CC(C)c1noc(N2CCC(N(C(=O)c3ccc(-n4cncn4)cc3)C3CC3)CC2)n1 [Example 97, N-Cyclopropyl-N-[1-(3-isopropyl-[1,2,4]oxadiazol-5-yl)-piperidin-4-yl]-4-[1,2,4]triazol-1-yl-benzamide]",0.17 µM
11,"Cc1nccn1-c1ccc(C(=O)N(C2CC2)C2CCN(c3nc(C(C)C)no3)CC2)cc1F [Example 99, N-Cyclopropyl-3-fluoro-N-[1-(3-isopropyl-[1,2,4]oxadiazol-5-yl)-piperidin-4-yl]-4-(2-methyl-imidazol-1-yl)-benzamide]",1.74 µM
12,"CC(C)c1noc(N2CCC(N(C(=O)c3ccc(-n4cncn4)c(F)c3)C3CC3)CC2)n1 [Example 100, N-Cyclopropyl-3-fluoro-N-[1-(3-isopropyl-[1,2,4]oxadiazol-5-yl)-piperidin-4-yl]-4-[1,2,4]triazol-1-yl-benzamide]",0.045 µM
